Experimental data taken from US20210188843A1, “QUINOLINE COMPOUNDS AND THEIR PREPARATION AND USE AS ANTIMALARIAL AGENTS” (The United States of America,as represented by the …, priority 2018, published 2021).
In brackets after ≈: the same amount, converted by molar mass.

Tests used:
Solubility pH 7.4 = type: physicochemical; conditions: aqueous buffer, Table 1
PAMPA permeability = type: in vitro ADME; conditions: Table 1
[1] = Microsomal stability (rat); type: in vitro ADME; conditions: rat microsomes, Table 1, read-out: Microsomal Stability (rat) T1/2
[2] = system: Asexual parasites of P. falciparum strain 3D7; experiment: In vitro drug activity on asexual parasites (SYBR Green assay); type: cell-based; conditions: Plasmodium falciparum; Table 1; P. falciparum 3D7 asexual stage, 72 h; read-out: Asexual EC50
Procedure, shortened: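 Growth was measured by SYBR Green I fluorescence (excitation 490 nm, emission 520 nm) after freeze-thaw lysis and 30 min staining at room temperature. Parasites (0.5% parasitemia, 2% hematocrit) had been incubated 72 h with compound, DMSO below 0.5%. Conditions were run in duplicate with no-drug and RBC-alone controls.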

| Structure (SMILES) | solubility (Solubility pH 7.4) [µg/mL] | Papp (PAMPA permeability) [×10⁻⁶ cm/s] | half-life [1] [min] | EC50 [2] [nM] |
| --- | --- | --- | --- | --- |
| CNCc1cccc(-n2c(=N)n(C)c3cnc4ccc(-c5ccc(Cl)cc5)cc4c32)c1 [Compound 67, 1-(3-(8-(4-chlorophenyl)-2-imino-3-methy-2,3-dihydro-H-imidazo[4,5-c]quinolin-1-yl)phenyl)-N-methylmethanamine] | > 42 | 48.1 | > 30 | 2990 |
| Cn1c(=N)n(-c2ccccc2C#N)c2c3cc(-c4ccc(Cl)cc4)ccc3ncc21 [Compound 68, 2-(8-(4-chlorophenyl)-2-imino-3-methyl-2,3-dihydro-1H-imidazo[4,5-c]quinolin-1-yl)benzonitrile] | > 41 | 142 | > 30 | 1450 |
| Cn1c(=N)n(-c2cccc(N3CCNCC3)c2)c2c3cc(-c4ccc(Cl)cc4)ccc3ncc21 [Compound 76, 8-(4-chlorophenyl)-3-methyl-1-(3-(piperazin-1-yl)phenyl)-1,3-dihydro-2H-imidazo[4,5-c]quinolin-2-imine] | > 46 | 28.3 | > 30 | 802 |
| Cn1c(=N)n(-c2cccc(F)c2)c2c3cc(-c4ccc(Cl)cc4)ccc3ncc21 [Compound 78, 8-(4-chlorophenyl)-1-(3-fluorophenyl)-3-methyl-1,3-dihydro-2H-imidazo[4,5-c]quinolin-2-imine] | < 1 | 629 | > 30 | 309 |
| Cn1c(=N)n(-c2cccc(O)c2)c2c3cc(-c4ccc(Cl)cc4)ccc3ncc21 [Compound 79, 3-(8-(4-chlorophenyl)-2-imino-3-methyl-2,3-dihydro-1H-imidazo[4,5-c]quinolin-1-yl)phenol] | 9.7 (≈ 24.2 µM) | 42 | > 30 | 1420 |
| Cn1c(=N)n(-c2cccc(CN3CCNCC3)c2)c2c3cc(-c4ccc(Cl)cc4)ccc3ncc21 [Compound 85, 8-(4-chlorophenyl)-3-methyl-1-(3-(piperazin-1-ylmethyl)phenyl)-1,3-dihydro-2H-imidazo[4,5-c]quinolin-2-imine] | > 48 | 11.2 | > 30 | 702 |
| Cc1ccc(C#N)cc1-n1c(=N)n(C)c2cnc3ccc(-c4ccccc4O)cc3c21 [Compound 86, 3-(8-(2-hydroxyphenyl)-2-imino-3-methyl-2,3-dihydro-1H-imidazo[4,5-c]quinolin-1-yl)-4-methylbenzonitrile] | > 40 | 7.9 | > 30 | 696 |
| COC(=O)/N=c1\n(C)c2cnc3ccc(-c4ccc(Cl)cc4)cc3c2n1-c1cc(C#N)ccc1C [Compound 87, methyl (E)-(8-(4-chlorophenyl)-1-(5-cyano-2-methylphenyl)-3-methyl-1,3-dihydro-2H-imidazo[4,5-c]quinolin-2-ylidene)carbamate] | < 1 | 95.6 | > 30 | 57.5 |
| Cc1ccc(C#N)cc1-n1/c(=N/C(=O)OC(C)(C)C)n(C)c2cnc3ccc(-c4ccc(Cl)cc4)cc3c21 [Compound 88, tert-butyl (E)-(8-(4-chlorophenyl)-1-(5-cyano-2-methylphenyl)-3-methyl-1,3-dihydro-2H-imidazo[4,5-c]quinolin-2-ylidene)carbamate] | < 1 | 128 | > 30 | 1620 |
| Cc1ccc(C#N)cc1-n1c(=N)n(C)c2cnc3ccc(-c4ccccn4)cc3c21 [Compound 91, 3-(2-imino-3-methyl-8-(pyridin-2-yl)-2,3-dihydro-1H-imidazo[4,5-c]quinolin-1-yl)-4-methylbenzonitrile] | > 39 | 1370 | > 30 | 423 |
| Cc1ccc(C#N)cc1-n1/c(=N/S(N)(=O)=O)n(C)c2cnc3ccc(-c4ccc(Cl)cc4)cc3c21 [Compound 100, (8-(4-chlorophenyl)-1-(5-cyano-2-methylphenyl)-3-methyl-1,3-dihydro-2H-imidazo[4,5-c]quinolin-2-ylidene)sulfonamide] | < 1 | 236 | > 30 | 12.9 |
